Data: patent US20130178475A1, “sGC STIMULATORS” (IRONWOOD PHARMACEUTICALS, INC., priority 2010, published 2013)

Biological target: T1, soluble guanylate cyclase (sGC) (Homo sapiens, UniProt Q02108+Q02153)
T1 construct: endogenously expressing soluble guanylate cyclase (sGC); endogenous in cells; host or cells: HEK293
T1 sequence (Q02153 1-619): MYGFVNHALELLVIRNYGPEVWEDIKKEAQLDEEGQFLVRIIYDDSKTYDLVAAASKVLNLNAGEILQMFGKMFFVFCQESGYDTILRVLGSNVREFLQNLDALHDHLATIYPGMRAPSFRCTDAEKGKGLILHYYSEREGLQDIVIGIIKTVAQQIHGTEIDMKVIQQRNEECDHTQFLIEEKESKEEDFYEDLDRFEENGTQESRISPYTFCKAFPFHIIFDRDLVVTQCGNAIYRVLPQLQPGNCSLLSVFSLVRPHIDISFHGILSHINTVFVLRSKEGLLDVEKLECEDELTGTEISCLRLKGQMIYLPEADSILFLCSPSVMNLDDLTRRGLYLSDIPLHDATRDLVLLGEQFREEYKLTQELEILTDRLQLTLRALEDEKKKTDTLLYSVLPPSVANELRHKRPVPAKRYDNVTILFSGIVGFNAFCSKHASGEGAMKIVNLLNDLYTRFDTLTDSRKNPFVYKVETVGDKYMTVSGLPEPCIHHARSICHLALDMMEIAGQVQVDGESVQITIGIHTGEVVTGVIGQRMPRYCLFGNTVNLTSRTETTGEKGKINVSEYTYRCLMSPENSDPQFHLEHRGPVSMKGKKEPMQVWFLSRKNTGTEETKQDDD
T1 sequence (Q02108 1-690): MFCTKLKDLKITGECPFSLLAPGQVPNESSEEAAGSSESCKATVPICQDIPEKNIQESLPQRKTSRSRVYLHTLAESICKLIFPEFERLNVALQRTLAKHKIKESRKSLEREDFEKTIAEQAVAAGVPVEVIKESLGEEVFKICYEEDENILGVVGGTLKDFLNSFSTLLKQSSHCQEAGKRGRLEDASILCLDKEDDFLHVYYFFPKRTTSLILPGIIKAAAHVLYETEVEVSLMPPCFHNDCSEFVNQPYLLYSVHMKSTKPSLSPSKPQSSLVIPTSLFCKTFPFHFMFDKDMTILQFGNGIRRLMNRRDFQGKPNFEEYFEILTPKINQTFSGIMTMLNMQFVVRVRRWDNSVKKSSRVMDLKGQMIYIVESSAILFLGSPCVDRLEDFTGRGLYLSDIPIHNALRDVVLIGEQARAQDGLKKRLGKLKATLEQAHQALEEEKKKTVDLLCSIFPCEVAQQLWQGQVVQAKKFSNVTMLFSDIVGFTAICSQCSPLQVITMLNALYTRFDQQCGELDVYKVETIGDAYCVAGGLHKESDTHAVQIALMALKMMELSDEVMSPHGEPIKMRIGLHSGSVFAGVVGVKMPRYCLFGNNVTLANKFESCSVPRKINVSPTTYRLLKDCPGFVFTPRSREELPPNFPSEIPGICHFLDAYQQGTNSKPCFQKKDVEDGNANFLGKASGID
Assay: sGC-HEK-cGMP assay
Assay type: cell-based
Conditions: HEK293 cells, 10 min incubation, intracellular cGMP by LC/MS; for Increase in cGMP Concentration Tested at 10 μM in HEK Assay: test compound 10 μM; for Increase in cGMP Concentration Tested at 30 μM in HEK Assay: test compound 30 μM
Procedure: Human embryonic kidney cells (HEK293), endogenously expressing soluble guanylate cyclase (sGC), were used to evaluate the activity of test compounds. Compounds stimulating the sGC receptor should cause an increase in the intracellular concentration of cGMP. […] Cells were then incubated for 15 minutes at 37° C. with 0.5 mM 3-isobutyl-1-methylxanthine (2004). Test article was then added to the assay mixture (2 μL) and incubated at 37° C. for 10 minutes. After the 10 minute incubation, the assay mixture was aspirated and 0.1M HCl (2004) was added to the cells. The plate was incubated at 4° C. for 30 minutes in the 0.1M HCl to stop the reaction and lyse the cells. The plates were then centrifuged at 1,200 g for 5 minutes at room temperature. Supernatants were collected and transferred to a new flat bottom 96 well plate for analysis. Vehicle controls were carried out using DMSO (1%). A known sGC stimulator, BAY 41-2272, was used as the positive control.
Samples were diluted with an equal volume of 1 M Ammonium Acetate (pH 7) to neutralize samples for better chromatography. A 2×cGMP standard curve was prepared in 0.1 M HCl and then diluted with an equal volume of 1 M Ammonium Acetate, with the following final concentrations in nM: 1024, 512, 256, 128, 64, 32, 16, 8, 4, 2, 1.
cGMP concentrations were determined from each sample using the LC/MS conditions (Table 2 below) and calculated standard curve. EC50 values were calculated from concentration-response curves generated with GraphPad Prism Software.

| Structure (SMILES) | Increase in cGMP Concentration Tested at 10 μM in HEK Assay | Increase in cGMP Concentration Tested at 30 μM in HEK Assay |
| --- | --- | --- |
| CC1(C)C=Cc2c(-c3ncccn3)nn(Cc3ccccc3F)c2C1 [Compound I-33] | A (A represents no increase or an increase ranging from more than 0 fold to less than 5 fold) | A (A represents no increase or an increase ranging from more than 0 fold to less than 5 fold) |
| CC1(C)CCCc2c(-c3ncccn3)nn(Cc3ccccc3F)c21 [Compound I-16] | A (A represents no increase or an increase ranging from more than 0 fold to less than 5 fold) | B (B represents an increase ranging from 5 fold to less than 10 fold) |
| COc1ccccc1C(=O)N1CCc2c(c(-c3ncccn3)nn2Cc2ccccc2F)C1 [Compound I-57] | B (B represents an increase ranging from 5 fold to less than 10 fold) | C (C represents an increase ranging from 10 fold to less than 20 fold) |
| O=S1(=O)CCc2c(c(-c3ncccn3)nn2Cc2ccccc2F)C1 [Compound I-19] | A (A represents no increase or an increase ranging from more than 0 fold to less than 5 fold) | A (A represents no increase or an increase ranging from more than 0 fold to less than 5 fold) |
| O=S(=O)(c1ccccc1)N1CCc2c(c(-c3ncccn3)nn2Cc2ccccc2F)C1 [Compound I-53, 1-(2-fluorobenzyl)-5-(phenylsulfonyl)-3-(pyrimidin-2-yl)-4,5,6,7-tetrahydro-1H-pyrazolo[4,3-c]pyridine] | A (A represents no increase or an increase ranging from more than 0 fold to less than 5 fold) | A (A represents no increase or an increase ranging from more than 0 fold to less than 5 fold) |
| Nc1nc(N)nc(-c2nn(Cc3ccccc3F)c3c2CCC3)n1 [Compound I-4] | A (A represents no increase or an increase ranging from more than 0 fold to less than 5 fold) | A (A represents no increase or an increase ranging from more than 0 fold to less than 5 fold) |
| Fc1ccccc1Cn1nc(-c2ncccn2)c2c1CCC(F)(F)C2 [Compound I-30] | A (A represents no increase or an increase ranging from more than 0 fold to less than 5 fold) | A (A represents no increase or an increase ranging from more than 0 fold to less than 5 fold) |
| Fc1ccccc1Cn1nc(-c2cncnc2)c2c1CCCC2 [Compound I-47, 1-(2-fluorobenzyl)-3-(pyrimidin-5-yl)-4,5,6,7-tetrahydro-1H-indazole] | A (A represents no increase or an increase ranging from more than 0 fold to less than 5 fold) | A (A represents no increase or an increase ranging from more than 0 fold to less than 5 fold) |
| O=C1CCCc2c1c(-c1ncccn1)nn2Cc1ccccc1F [Compound I-21] | A (A represents no increase or an increase ranging from more than 0 fold to less than 5 fold) | A (A represents no increase or an increase ranging from more than 0 fold to less than 5 fold) |
| O=C(c1cccnc1)N1CCc2c(c(-c3ncccn3)nn2Cc2ccccc2F)C1 [Compound I-54] | A (A represents no increase or an increase ranging from more than 0 fold to less than 5 fold) | A (A represents no increase or an increase ranging from more than 0 fold to less than 5 fold) |
| O=C(c1ccccn1)N1CCc2c(c(-c3ncccn3)nn2Cc2ccccc2F)C1 [Compound I-56] | A (A represents no increase or an increase ranging from more than 0 fold to less than 5 fold) | A (A represents no increase or an increase ranging from more than 0 fold to less than 5 fold) |
| CC(=O)N1CCc2c(c(-c3ncccn3)nn2Cc2ccccc2F)C1 [Compound I-52, 1-(1-(2-fluorobenzyl)-3-(pyrimidin-2-yl)-6,7-dihydro-1H-pyrazolo[4,3-c]pyridin-5(4H)-yl)ethanone] | A (A represents no increase or an increase ranging from more than 0 fold to less than 5 fold) | A (A represents no increase or an increase ranging from more than 0 fold to less than 5 fold) |
| CC1(C)CCc2c(c(-c3ncccn3)nn2Cc2ccccc2F)C1 [Compound I-17] | B (B represents an increase ranging from 5 fold to less than 10 fold) | A (A represents no increase or an increase ranging from more than 0 fold to less than 5 fold) |
| Nc1nc(-c2nn(Cc3ccccc3F)c3c2CCCC3)nc(N)c1N1CCOC1=O [Compound I-26] | A (A represents no increase or an increase ranging from more than 0 fold to less than 5 fold) | B (B represents an increase ranging from 5 fold to less than 10 fold) |
| CC1(C)C=Cc2c(c(-c3ncccn3)nn2Cc2ccccc2F)C1 [Compound I-29] | A (A represents no increase or an increase ranging from more than 0 fold to less than 5 fold) | B (B represents an increase ranging from 5 fold to less than 10 fold) |
| CC1(C)C=Cc2c1c(-c1nccc(N)n1)nn2Cc1ccccc1F [Compound I-28] | B (B represents an increase ranging from 5 fold to less than 10 fold) | C (C represents an increase ranging from 10 fold to less than 20 fold) |
| COc1cccc(Cn2nc(-c3ncccn3)c3c2CCCC3)c1 [Compound I-5] | B (B represents an increase ranging from 5 fold to less than 10 fold) | C (C represents an increase ranging from 10 fold to less than 20 fold) |
| COC(=O)Nc1c(N)nc(-c2nn(Cc3ccccc3F)c3c2CCC3)nc1N [Compound I-36] | C (C represents an increase ranging from 10 fold to less than 20 fold) | B (B represents an increase ranging from 5 fold to less than 10 fold) |
| Nc1ccnc(-c2nn(Cc3ccccc3F)c3c2C2CCC3C2)n1 (stereo not shown) [Compound I-31] | A (A represents no increase or an increase ranging from more than 0 fold to less than 5 fold) | A (A represents no increase or an increase ranging from more than 0 fold to less than 5 fold) |
| O=C(c1ccncc1)N1CCc2c(c(-c3ncccn3)nn2Cc2ccccc2F)C1 [Compound I-55] | A (A represents no increase or an increase ranging from more than 0 fold to less than 5 fold) | A (A represents no increase or an increase ranging from more than 0 fold to less than 5 fold) |
